Where “and” joins values, the source holds several entries; their conditions need not be identical. Equal entries are not always repeated.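 Interpolation was linear, between the two tested concentrations surrounding the appropriate level; five concentrations were tested over 48 hours in 96-well plates. Abbreviation: GI50, concentration required for 50% inhibition of growth. TGI: total growth inhibition.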
Tests used:
Assay in all cases: NCI tumour cell line growth inhibition, 48 h
[1] = tested on: M14 melanoma
[2] = tested on: CAKI-1 renal
[3] = tested on: 786-0 renal
[4] = tested on: IGROV1 ovarian
[5] = tested on: HCT-15 colon
[6] = tested on: UACC-257 melanoma
[7] = tested on: COLO 205 colon
[8] = tested on: A549 NSCLC
[9] = tested on: T-47D breast
[10] = tested on: NCI-H522 lung

Compound	GI50 [1]	TGI [1]	GI50 [2]	TGI [2]	GI50 [3]	TGI [3]	GI50 [4]	TGI [4]	GI50 [5]	TGI [5]	GI50 [6]	TGI [6]	GI50 [7]	TGI [7]	GI50 [8]	TGI [8]	GI50 [9]	TGI [9]	TGI [10]	GI50 [10]
CCn1cc(C(=O)N/N=C/c2ccccc2)c(=O)c2cc(F)c(N3CCNC(C)C3)c(F)c21 (stereo unspecified)	1.78 µM	3.26 µM	1.75 µM	3.14 µM	1.68 µM	3.25 µM	1.71 µM	3.2 µM	1.45 µM	2.82 µM	–	–	–	–	–	–	–	–	–	–
COc1ccc(-c2nc(/C=N/Nc3cc(C)nc4ccc(Cl)cc34)c(C)o2)cc1	1.74 µM	3.36 µM	1.63 µM	2.98 µM	1.56 µM	2.98 µM	1.76 µM	3.36 µM	1.52 µM	3.06 µM	1.7 µM	3.35 µM	1.63 µM	3.18 µM	1.73 µM	3.32 µM	1.71 µM	3.56 µM	–	–
C1=CC=C2NCCCCCCCNC3=CC=CC=CC3=NCCCCCCCN=C2C=C1	–	–	–	> 100 µM	–	> 100 µM	–	–	–	> 100 µM	–	> 100 µM	–	> 100 µM	–	> 100 µM	–	–	> 100 µM	–
N#CCCN(CCCN(CCCN(C(=O)Nc1ccccc1)c1ccccc1)C(=O)Nc1ccccc1)C(=O)Nc1ccccc1	> 100 µM	> 100 µM	> 100 µM	> 100 µM	> 100 µM	> 100 µM	31.7 µM	> 100 µM	–	> 100 µM	> 100 µM	> 100 µM	> 100 µM	> 100 µM	> 100 µM	> 100 µM	> 100 µM	> 100 µM	–	–
O=C(O/C(=C(/N=Nc1ccccc1)c1ccccc1)c1ccccc1)c1ccccc1	–	–	–	> 100 µM	–	> 100 µM	–	> 100 µM	–	> 100 µM	–	> 100 µM	–	–	–	> 100 µM	–	–	> 100 µM	–
O=c1[nH]nc2ccccc2c1Cc1ccccc1	–	> 100 µM	–	> 100 µM	–	> 100 µM	–	> 100 µM	–	> 100 µM	–	> 100 µM	–	> 100 µM	–	> 100 µM	–	–	–	–
CC(C)CCCC(C)[C@H]1CCC2[C@@H]3CCC4Nc5nocc5C[C@]4(C)C3CC[C@@]21C (stereo partly specified)	–	41.8 µM	–	29 µM	–	25.9 µM	–	57 µM	–	30.3 µM	–	39.5 µM	–	20.4 µM	–	54.8 µM	–	–	14.5 µM	–
COc1cccc2c1C(=O)c1c(O)c3c(c(O)c1C2=O)CC(O)(C(O)CO)CC3OC1CC(N2CCOCC2)C(O)C(C)O1 (stereo unspecified)	0.0158 µM	0.0288 µM and 0.0381 µM	–	0.0335 µM	< 0.001 µM	0.148 µM and 0.0989 µM	0.0288 µM	–	0.0536 µM	0.515 µM and 1.36 µM	0.0199 µM	0.013 µM and 0.0424 µM	0.0278 µM	–	–	0.472 µM	–	–	0.0172 µM and 0.0956 µM	0.0264 µM
CCC(C)[C@H]1O[C@]2(C=C[C@@H]1C)C[C@@H]1C[C@@H](C/C=C(\C)[C@@H](OC3C[C@H](OC)C(O[C@H]4C[C@H](OC)[C@@H](O)[C@H](C)O4)[C@H](C)O3)[C@@H](C)/C=C/C=C3\CO[C@@H]4[C@H](O)C(C)=C[C@@H](C(=O)O1)[C@]34O)O2 (stereo partly specified)	1.04 µM	2.33 µM	–	–	0.728 µM	1.56 µM	–	–	1.72 µM	6.79 µM	1.56 µM	5.74 µM	0.86 µM	1.62 µM	1.22 µM	7.04 µM	1.09 µM	3.58 µM	1.93 µM	0.89 µM
COCC(O)Cn1ccnc1[N+](=O)[O-] (stereo unspecified)	–	> 100 µM	–	> 100 µM	–	> 100 µM	–	–	–	> 100 µM	–	> 100 µM	–	> 100 µM	–	> 100 µM	–	–	> 100 µM	–
OCC1C(/C=C/c2ccoc2)ON2CCCC12 (stereo unspecified)	–	> 100 µM	–	> 100 µM	–	> 100 µM	–	–	–	–	–	> 100 µM	–	> 100 µM	–	> 100 µM	–	–	> 100 µM	–
C[C@]12CCC(=O)C=C1CC[C@@H]1C2CC[C@]2(C)Nc3c(cnn3-c3ccccc3)CC12 (stereo partly specified)	–	> 100 µM	–	> 100 µM	–	> 100 µM	–	> 100 µM	–	> 100 µM	–	> 100 µM	–	–	–	> 100 µM	–	–	–	–
Cc1cc(C(=C2C=CC(=Nc3ccccc3)C=C2)c2ccc(Nc3ccccc3)cc2)ccc1N	0.286 µM	1.04 µM	–	–	0.259 µM	0.709 µM	0.389 µM	1.34 µM	–	–	0.286 µM	1.04 µM	0.201 µM	0.407 µM	0.599 µM	1.69 µM	0.527 µM	1.93 µM	0.602 µM	0.203 µM
C=CCNC(=O)N(CCCC(NC(C)=O)C(=O)NCc1ccccc1)Cc1ccccc1 (stereo unspecified)	–	> 100 µM	–	> 100 µM	–	> 100 µM	–	> 100 µM	–	> 100 µM	–	> 100 µM	–	> 100 µM	–	> 100 µM	–	–	> 100 µM	–
CC(=O)NNc1nc(C)c(C(=O)/C=C/c2ccccc2Cl)s1	–	–	–	> 100 µM	–	> 100 µM	–	> 100 µM	–	> 100 µM	–	> 100 µM	–	> 100 µM	–	> 100 µM	–	–	> 100 µM	–
O=C1NC2(CCCCCC2)C2CCCCCCC12O (stereo unspecified)	–	> 100 µM	–	> 100 µM	–	> 100 µM	–	> 100 µM	–	> 100 µM	–	> 100 µM	–	> 100 µM	–	> 100 µM	–	–	> 100 µM	–
Cc1cc2c(C)nn(Cc3ccccc3)c2c(C(N)=O)c1C	–	> 100 µM	–	–	–	> 100 µM	–	> 100 µM	–	> 100 µM	–	> 100 µM	–	> 100 µM	–	> 100 µM	–	–	> 100 µM	–
Cc1cc(NCCCCCCNc2cc(C)nc3cc(N(C)C)ccc23)c2ccc(N(C)C)cc2n1	–	> 100 µM	–	> 100 µM	–	> 100 µM	–	–	–	> 100 µM	–	> 100 µM	–	–	–	–	–	–	> 100 µM	–
O=C(CC(=O)C1=CNc2ccccc2S1)C(=O)Nc1ccc(Cl)cc1	–	> 50 µM	–	> 50 µM	–	> 50 µM	–	> 50 µM	–	> 50 µM	–	> 50 µM	–	> 50 µM	–	> 50 µM	–	–	> 50 µM	–
COC1=CC(c2ccc[nH]2)=N/C1=C\c1[nH]c(C)c(C(=O)CCCCC(=O)NC(C)(C)C)c1C	1.62 µM	3.1 µM	1.39 µM	4.43 µM	1.7 µM	3.36 µM	2.1 µM	4.59 µM	0.683 µM	2.06 µM	16 µM	35.8 µM	1.22 µM	2.46 µM	3.34 µM	21.7 µM	–	–	6.73 µM	2.09 µM

From PubChem BioAssay (NCI)
